Laboratory results taken from patent publication US12605318B2, “Synergistic preservative/personal care composition containing an alkylene glycol ester” (priority 2020, dated 2026).

Assays:
Assay in all cases: Log reduction test of preservative agent and PGC in water matrices (drop plate), Example 3
Assay type in all cases: cell-based
[1] = system: Candida albicans ATCC 10231/DSM 1386; conditions: PGC 0 ppm; for Log reduction: contact time 5 min, water
Protocol: (§1) Bacterial and yeast strains were kept cryofrozen at −80° C.; before use, they were sub-cultured onto tryptone soya agar (Bacteria) and malt extract agar (yeast), and incubated at the appropriate temperature and time.
(§2) A test suspension was then created for each the bacteria and yeast by adding loopfuls of organism to sterile distilled water and adjusting the cell concentration to between 1×10^8 and 5×10^9 CFU/ml for bacteria, and 1×10^6 and 5×10^7 CFU/ml for yeast. This was achieved using the data from a calibration curve generated by a spectrophotometer at a wavelength of 620 nm.
(§3) For each organism tested, 1 g of each preservative agent and PGC composition sample was prepared in sterile distilled water.
(§4) Each test sample was prepared by inoculating 1 ml aliquot of the test organism suspension into 1 ml of test sample.
(§5) The combination was then mixed. Each test mixture was sampled and tested at a defined time point after inoculation. The contact times used in this study are detailed in Table 7 above.
(§6) Upon reaching the specified contact time the test mixture was deactivated by adding a 100 μl of test mixture into 900 μl of neutralizing broth and the whole solution was mixed. The solution was left for 5 minutes to ensure the action of the preservative agent was effectively neutralized. Subsequent dilutions were prepared by adding 100 μl into 900 μl of neutralizing broth.
(§7) For each dilution prepare drop plates using appropriate agar and incubate at the appropriate temperature and time as in Table 5.
(§8) Used the drop plate technique.
(§9) Prepare agar plates by drying for 45 min-1 hour in a laminar flow at 20-25° C. Aliquot 0.025 ml drops onto the agar surface for each sample dilution. Allow drops to dry and incubate appropriately.
(§10) Plates were plates were prepared in sextuplicate for each for each sample dilution.
(§11) [formula] • Where • d1 is sum of viable count values from 6 drops • This was then multiplied by 40 to establish cfu/ml; Enumeration and Calculation of T (Test Sample)
(§12) [formula] • Where • d1 is sum of viable count values from 6 drops • This was then multiplied by 40 to establish cfu/ml;
(§13) To calculate the final log reduction the following calculation was used: Log 10 N−log 10 T=log reduction

[2] = system: Pluralibacter gergoviae ATCC 33028/DSM 9245; conditions: PGC 0 ppm; for Log reduction: contact time 5 min, water
Protocol: as §1, §2, §3, §4, §5, §6, §7, §8, §9, §10, §11, §12, §13

[3] = system: Aspergillus brasiliensis ATCC 16404/NCPF 2275; conditions: PGC 0 ppm
Protocol: A test suspension was then created in tryptone buffered saline and adjusting the cell concentration to between 1×10^5 and 5×10^6 CFU/ml.
as §3, §4, §5, §6, §7, §8, §9, §10, §11, §12, §13

[4] = Didecyl dimethyl ammonium chloride 10 ppm
[5] = Didecyl dimethyl ammonium chloride 20 ppm
[6] = Didecyl dimethyl ammonium chloride 30 ppm
[7] = Didecyl dimethyl ammonium chloride 40 ppm
[8] = Didecyl dimethyl ammonium chloride 50 ppm

O=c1[nH]sc2ccccc12 [Benzisothiazolinone]
log reduction ([1]; Benzisothiazolinone 50 ppm): 0.00
log reduction ([1]; Benzisothiazolinone 100 ppm): 0.00
log reduction ([1]; Benzisothiazolinone 250 ppm): 0.00
log reduction ([1]; Benzisothiazolinone 500 ppm): 0.00
log reduction ([1]; Benzisothiazolinone 1000 ppm): 0.00
log reduction ([2]; Benzisothiazolinone 12.5 ppm): 0.00
log reduction ([2]; Benzisothiazolinone 25 ppm): 0.00
log reduction ([2]; Benzisothiazolinone 50 ppm): 0.00
log reduction ([2]; Benzisothiazolinone 100 ppm): 0.03
log reduction ([2]; Benzisothiazolinone 200 ppm): 1.21
log reduction ([3]; Benzisothiazolinone 50 ppm): −0.03
log reduction ([3]; Benzisothiazolinone 100 ppm): 0.17
log reduction ([3]; Benzisothiazolinone 250 ppm): 0.14
log reduction ([3]; Benzisothiazolinone 500 ppm): 0.24
log reduction ([3]; Benzisothiazolinone 1000 ppm): 0.28

OCc1ccccc1 [Benzyl Alcohol]
log reduction ([2]; Benzyl Alcohol 500 ppm): 0.00
log reduction ([2]; Benzyl Alcohol 1000 ppm): 1.24
log reduction ([2]; Benzyl Alcohol 2000 ppm): 1.57
log reduction ([2]; Benzyl Alcohol 3000 ppm): 2.04
log reduction ([2]; Benzyl Alcohol 4000 ppm): 4.04

CCCCCCCCCCCCN(CCCN)CCCN [Bis (3-aminopropyl) dodecylamine]
Log reduction ([1]; Bis (3-aminopropyl) dodecylamine 10 ppm): 3.14
Log reduction ([1]; Bis (3-aminopropyl) dodecylamine 20 ppm): >4.44
Log reduction ([1]; Bis (3-aminopropyl) dodecylamine 40 ppm): >4.44
Log reduction ([1]; Bis (3-aminopropyl) dodecylamine 60 ppm): >4.44
Log reduction ([1]; Bis (3-aminopropyl) dodecylamine 80 ppm): >4.44
Log reduction ([2]; Bis (3-aminopropyl) dodecylamine 5 ppm): 0.01
Log reduction ([2]; Bis (3-aminopropyl) dodecylamine 12.5 ppm): 0.00
Log reduction ([2]; Bis (3-aminopropyl) dodecylamine 25 ppm): 2.00
Log reduction ([2]; Bis (3-aminopropyl) dodecylamine 50 ppm): >5.52
Log reduction ([2]; Bis (3-aminopropyl) dodecylamine 100 ppm): >5.52

CC(=O)C1C(=O)C=C(C)OC1=O (stereo not drawn) [Dehydroacetic acid]
log reduction ([1]; Dehydroacetic acid 1000 ppm): 0.00
log reduction ([1]; Dehydroacetic acid 2000 ppm): 0.00
log reduction ([1]; Dehydroacetic acid 3000 ppm): 0.00
log reduction ([1]; Dehydroacetic acid 4000 ppm): 0.23
log reduction ([1]; Dehydroacetic acid 5000 ppm): 0.52

CCCCCCCCCC[N+](C)(C)CCCCCCCCCC.[Cl-] [Didecyl dimethyl ammonium chloride]
Log reduction [1, 4]: 1.07
Log reduction [1, 5]: 1.01
Log reduction [1, 6]: 1.33
Log reduction [1, 7]: 2.43
Log reduction [1, 8]: >4.52
log reduction [3, 4]: 1.01
log reduction [3, 5]: 2.44
log reduction [3, 6]: >4.05
log reduction [3, 7]: >4.05
log reduction [3, 8]: >4.05

CC(O)C(=O)O (stereo not drawn) [Lactic Acid]
log reduction ([2]; Lactic Acid 200 ppm): 0.00
log reduction ([2]; Lactic Acid 500 ppm): 0.00
log reduction ([2]; Lactic Acid 1000 ppm): 2.08
log reduction ([2]; Lactic Acid 1500 ppm): 3.67
log reduction ([2]; Lactic Acid 2000 ppm): 4.49
log reduction ([3]; Lactic Acid 100 ppm): 0.06
log reduction ([3]; Lactic Acid 250 ppm): 0.12
log reduction ([3]; Lactic Acid 500 ppm): 0.05
log reduction ([3]; Lactic Acid 1000 ppm): 0.08
log reduction ([3]; Lactic Acid 2500 ppm): 0.15

O=C([O-])c1ccccc1.[Na+] [Sodium Benzoate]
log reduction ([1]; Sodium Benzoate 10000 ppm): 0.00
log reduction ([1]; Sodium Benzoate 20000 ppm): 0.00
log reduction ([1]; Sodium Benzoate 30000 ppm): 0.00
log reduction ([1]; Sodium Benzoate 40000 ppm): 0.00
log reduction ([1]; Sodium Benzoate 50000 ppm): 2.06
log reduction ([2]; Sodium Benzoate 2000 ppm): 0.00
log reduction ([2]; Sodium Benzoate 5000 ppm): 0.00
log reduction ([2]; Sodium Benzoate 10000 ppm): 0.00
log reduction ([2]; Sodium Benzoate 20000 ppm): 0.46
log reduction ([2]; Sodium Benzoate 30000 ppm): 1.40
log reduction ([3]; Sodium Benzoate 10000 ppm): 0.17
log reduction ([3]; Sodium Benzoate 20000 ppm): 0.50
log reduction ([3]; Sodium Benzoate 30000 ppm): 0.70
log reduction ([3]; Sodium Benzoate 40000 ppm): 1.32
log reduction ([3]; Sodium Benzoate 50000 ppm): 1.34

C/C=C/C=C/C(=O)O [Sorbic Acid]
log reduction ([2]; Sorbic acid 100 ppm): 0.00
log reduction ([2]; Sorbic acid 200 ppm): 0.00
log reduction ([2]; Sorbic acid 300 ppm): 0.00
log reduction ([2]; Sorbic acid 400 ppm): 0.58
log reduction ([2]; Sorbic acid 500 ppm): 1.38
